Publication PMC4589404, “Entamoeba histolytica Dmc1 Catalyzes Homologous DNA Pairing and Strand Exchange That Is Stimulated by Calcium and Hop2-Mnd1” (PLoS ONE, 2015)

B1: ehDmc1 (Entamoeba histolytica HM-1:IMSS) (protein)
chain: MTEVKSKTNEQEENVQEIEEDEVEEVPSFHSIDILQQQGINVGDINKLKSAGCNTIESVVMHTHKELCAIRGFSDSKVDKIMEAVSKIFPTHSFISATTSLERRANVIKITTGSSQFDQLLGGGIETMSVTEMFGEFRTGKTQLCHTLAVTTQLPSHLKGGNGKVAYIDTEGTFRPERIAQIAERFGVDQTAVLDNILIARAYTHEQQFDLLIEVAARMAEDHFRMLIIDSVTSLFRVDFSGRGELSERQQKLGKMMNKLIKISEEFNVAVVITNQVMSDPGGGAMFVVDPKKPIGGHVIAHASTTRLYLRKGKGEQRIVKIYDSPNLPEAEATFAIDTGGIIDAKD
notes: 334 amino acid protein with N-terminal six-histidine tag

How the values were obtained:
[1] = molecular target: T1, ehDmc1 (Entamoeba histolytica, UniProt C4LTR6); experiment: D-loop assay with purified protein (IC50); also ssDNA EMSA, nuclease protection and ATPase assays; assay type: biochemical
T1 construct: gene EHI_050430; 334 amino acid protein with N-terminal six-histidine tag
T1 sequence (C4LTR6 1-347): B1 chain

[2] = substrate: Nc1ncnc2c1ncn2[C@@H]1O[C@H](COP(=O)(O)OP(=O)(O)OP(=O)(O)O)[C@@H](O)[C@H]1O; experiment: Michaelis-Menten ATP hydrolysis assay (TLC), purified protein; Km; assay type: biochemical, Entamoeba histolytica; settings: Mg2+

Molecule	IC50 [1] [µM]	Km [2] [µM]
O=S(=O)(O)c1cc(N=C=S)ccc1C=Cc1ccc(N=C=S)cc1S(=O)(=O)O [DIDS, 4,4′-diisothiocyanostilbene-2,2′-disulfonic acid]	4.5 ± 0.23	–
B1	–	480 ± 50
